Test results taken from patent US20260000685A1, “PHARMACEUTICAL COMPOSITION FOR PREVENTING OR TREATING DEGENERATIVE BRAIN DISEASES, COMPRISING CANNABINOIDS AS ACTIVE INGREDIENT, AND USES THEREOF” (NEOCANNBIO CO., LTD., priority 2022, published 2026).

What was measured:
[1] = test system: Alzheimer's animal model (Aβ1-42 treated mice); test: Object location test (OLT) in Aβ1-42 Alzheimer's animal model; type: in vivo, ICR mice; conditions: compared to mice treated with only Aβ1-42; FIG. 14
Experimental: (§1) Female ICR mice (8 weeks old) used in the experiment were purchased from Coretech (Pyeongtaek, Korea). Mice were housed in the animal care facility of the Korea Institute of Science and Technology (KIST) (temperature 22±2° C., humidity 40-60%, 12-hour light/dark cycle). Mice were housed in an environment with free access to food and water. All animal experiments were conducted in accordance with the protocol approval of the Animal Ethics Committee of our institution.
(§2) Next, to create an animal model, mice were randomly selected and divided into four groups as follows: PBS treated group (PBS+PBS), Aβ1-42 treated group (Aβ1-42 +PBS) (Alzheimer's animal model), CBDA treated group (Δβ1-42+CBDA (6.25 µM, 3 μL/mouse)), and THCA treated group (Δβ1-42+THCA (12.5 μM, 3 μL/mouse)).
(§3) After anesthetizing the isolated mice by intraperitoneal (i.p.) injection of avertin (250 mg/kg), the mice were fixed in a stereotaxic apparatus, and CBDA, THCA, Aβ1-42, or PBS (3 μl/15 min/mouse) were gradually delivered to the hippocampus using a Hamilton syringe (coordinates of bregma: mediolateral (ML)=1.30 mm, anteroposterior (AP)=−2.00 mm, dorsoventral=−2.20 mm).
(§4) First, the Novel Object Recognition Test (NOR) was conducted to examine a natural tendency of the experimental mice to explore novel stimuli. For this purpose, during the habituation session conducted 2 days before the test, the mice were allowed to explore the test environment consisting of an opaque custom-made Plexiglas box (35 cm×45 cm×25 cm) for 10 minutes. The sample object phase was conducted 24 hours later. Two identical white circular cylinders (sample objects) were placed on opposite edges of the test environment, and mice were given access to the objects for 10 minutes. After 4 hours (novel object stage), one of the sample objects in the test environment was replaced with a similarly sized novel object (colored miniature animal), and the mouse was allowed to contact this novel arrangement for 5 minutes. The time when the mouse's nose stayed <1 cm away from the object was considered the time the mouse explored the object, excluding the time when the mouse stood on the object. The identification rate was calculated as the time spent exploring the novel object relative to the time spent exploring the two objects.
Additionally, for the object location test (OLT), it was conducted in the same manner as the novel object recognition test described above, but on the last day of the object location test, one of the two sample objects was moved to a different location and the test was conducted.

[2] = test system: APP (Amyloid Precursor Protein); test: Western blotting of APP expression in Aβ1-42-treated primary neuronal cells; type: cell-based, ICR mice; conditions: CBDA (6 μM) or THCA (5 μM), with Aβ1-42 (5 μM), 24 hours; FIG. 6
Experimental: (§5) Specifically, primary neuronal cells derived from ICR mice were cultured for 6 days, and then treated with CBDA, THCA, THC, or CBN compounds while treating with Aβ1-42 (5 μM), and treated together for 24 hours. Next, Western blotting was conducted to confirm the expression levels of APP (Amyloid Precursor Protein), polymeric Aβ, and oligomeric AB in the cells.
(§6) To conduct Western blotting, tissues were homogenized in radioimmunoprecipitation assay buffer (Cell Signaling) to acquire tissue lysates. Tissue protein concentrations were determined using the Bio-Rad protein assay (Bio-Rad, Hercules, CA, USA), and Western blot analysis was conducted using 80-120 μg of protein. Next, the Western blotting samples prepared using the proteins were separated using 12% SDS-PAGE and transferred to a polyvinylidene fluoride membrane (PVDF) (Merck Millipore, Burlington, MA, USA; 0.4 μm). The PVDF was blocked with tris-buffered saline including 5% bovine serum albumin and Tween-20, and incubated with primary antibodies overnight at 4° C. After primary antibody incubation, the samples were incubated with HRP-conjugated secondary antibody (Sigma; 1:5000) for 1 hour at room temperature, and immunodetection was conducted using an enhanced chemiluminescence detection kit (GE Healthcare, Chicago, IL, USA).

[3] = test system: Alzheimer's animal model (Aβ1-42 treated mice); test: Novel object recognition test (NOR) in Aβ1-42 Alzheimer's animal model; type: in vivo, ICR mice; conditions: compared to mice treated with only Aβ1-42; FIG. 14
Experimental: as §1, §2, §3, §4

amyloid beta (Aβ) [4] = test: Western blot of Aβ in hippocampal tissues of animal model; type: in vivo, ICR mice; conditions: day 19; compared to Aβ1-42 treated group; FIG. 15
Experimental: as §6
Specifically, hippocampal tissues were acquired on day 19 from the animal models created in Example 7 above (PBS treated group, Aβ1-42 treated group, CBDA treated group, and THCA treated group), and Western blot analysis was conducted on the hippocampal tissues to evaluate the expression levels of APP (Amyloid Precursor Protein), polymeric Aβ, and oligomeric Aβ.

[5] = test system: phosphorylated tau (p-Tau); test: Western blotting of Tau/p-Tau in Aβ1-42-treated primary neuronal cells; type: cell-based, ICR mice; conditions: with Aβ1-42 (5 μM), 24 hours; compared to Aβ1-42 alone; FIG. 7
Experimental: as §6
Specifically, primary neuronal cells derived from ICR mice were cultured for 6 days, and then treated with CBDA, THCA, THC, or CBN compounds while treating with Aβ1-42 (5 μM), and treated together for 24 hours. Next, to confirm the expression levels of Tau and phosphorylated Tau (p-Tau) in the cells, Western blotting was conducted using the method disclosed in Example 4 above.

[6] = test system: phosphorylated tau (p-Tau); test: Western blot of Tau/p-Tau in hippocampal tissues of animal model; type: in vivo, ICR mice; conditions: day 19; compared to Aβ1-42 treated group; FIG. 16
Experimental: as §6
Specifically, hippocampal tissues were acquired on day 19 from the animal models created in Example 7 above (PBS treated group, Aβ1-42 treated group, CBDA treated group, and THCA treated group), and Western blot analysis was conducted on the hippocampal tissues to evaluate the expression levels of Tau and phosphorylated Tau (p-Tau).

primary neuronal cells = test: Inhibition of Aβ1-42-induced neuron apoptosis (MTS cell viability); type: cell-based, ICR mice; conditions: for cell survival rate level: different concentrations with Aβ1-42 (5 μM), 24 hours, compared to control treated with Aβ1-42 alone, FIG. 2; for neuron apoptosis inhibition efficacy: same concentration of CBDA, CBD, THCA and THC, Memantine as positive control, FIG. 3
Experimental: Specifically, primary neuronal cells derived from ICR mice were seeded in 96-wells at 5×10^5 cells per well and cultured for 6 days. Afterwards, the six compounds of Example 1 above were treated at different concentrations and Aβ1-42 (5 μM) was treated to induce neuron apoptosis, and the cells were treated together for 24 hours. Afterwards, a MTS solution was added to the medium and incubated for 2 hours. Cytotoxicity (cell viability) was measured using a microplate spectrophotometer (Bio-Tek Power Wave XS, Winooski, VT, USA), and absorbance was measured at 490 nm.
Next, the neuron apoptosis inhibition efficacy for the same concentration of CBDA, CBD, THCA and THC was evaluated using the same method as above. Memantine, known as an Alzheimer's treatment, was used as a positive control group.

amyloid beta (Aβ) [7] = test: Western blotting of Aβ expression in Aβ1-42-treated primary neuronal cells; type: cell-based, ICR mice; conditions: with Aβ1-42 (5 μM), 24 hours; for expression level of oligomeric Aβ / expression level of polymeric Aβ: CBDA (6 μM) or THCA (5 μM), FIG. 6; for expression level of AB: compared to Aβ1-42 alone, FIG. 5
Experimental: as §5, §6

Row | Structure (SMILES) | identification rate (OLT) [1] | time investigating the object moved to a different location [1] | expression level of APP [2] | identification rate (NOR) [3] | time investigating the novel object [3] | expression level of Aβ in hippocampal tissues (amyloid beta (Aβ) [4]) | expression level of p-Tau [5] | phosphorylation level of p-Tau [5] | expression level of p-Tau in hippocampal tissues [6] | phosphorylation level of p-Tau in hippocampal tissues [6] | cell survival rate level (primary neuronal cells) | neuron apoptosis inhibition efficacy (primary neuronal cells) | expression level of oligomeric Aβ (amyloid beta (Aβ) [7]) | expression level of polymeric Aβ (amyloid beta (Aβ) [7]) | expression level of AB (amyloid beta (Aβ) [7])
1 | CCCCCc1cc2c(c(O)c1C(=O)O)[C@@H]1C=C(C)CC[C@H]1C(C)(C)O2 [THCA, (6aR, 10aR)-1-Hydroxy-6,6,9-trimethyl-3-pentyl-6a,7,8,10a-tetrahydro-6H-benzo[c]chromene-2-carboxylic acid] | significantly increased | spent more time | significantly reduced | significantly increased | spent more time | significantly reduced | significantly reduced | significantly reduced | significantly reduced | significantly reduced | significantly increased | better neuron apoptosis inhibition efficacy | significantly reduced | significantly reduced | significantly reduced
2 | C=C(C)[C@@H]1CCC(C)=C[C@H]1c1c(O)cc(CCCCC)c(C(=O)O)c1O [CBDA] | significantly increased | spent more time | significantly reduced | significantly increased | spent more time | significantly reduced | significantly reduced | significantly reduced | significantly reduced | significantly reduced | significantly increased | better neuron apoptosis inhibition efficacy | significantly reduced | significantly reduced | significantly reduced
